Experimental data published in PubChem BioAssay (NCI).
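Exposure lasted 48 hours, with cells grown in 96-well plates and compounds tested at five concentrations. The concentration for 50% growth inhibition is given as GI50. TGI is the concentration that stops growth completely.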

How the values were obtained:
Assay in all cases: NCI tumour cell line growth inhibition, 48 h
[1] = system: NCI-H226 lung
[2] = system: A498 renal
[3] = system: NCI-H460 lung
[4] = system: NCI/ADR-RES ovarian
[5] = system: DU-145 prostate
[6] = system: TK-10 renal
[7] = system: K-562 leukemia
[8] = system: EKVX NSCLC
[9] = system: LOX IMVI melanoma
[10] = system: 786-0 renal

SMILES | GI50 [1] [µM] | TGI [1] [µM] | GI50 [2] [µM] | TGI [2] [µM] | GI50 [3] [µM] | TGI [3] [µM] | GI50 [4] [µM] | TGI [4] [µM] | GI50 [5] [µM] | TGI [5] [µM] | GI50 [6] [µM] | TGI [6] [µM] | GI50 [7] [µM] | TGI [7] [µM] | GI50 [8] [µM] | TGI [8] [µM] | GI50 [9] [µM] | TGI [9] [µM] | GI50 [10] [µM] | TGI [10] [µM]
CCCCCCCCCCCCCCCCN1CC2CCCCC2C1 (stereo unspecified) | 4.2 | 16.8 | 16.2 | 30.6 | > 100 | > 100 | 4.56 | 16.8 | 3.85 | 14.1 | 11.2 | 26.1 | 3.54 | 11.2 | 9.19 | 21.8 | 3.77 | 13.8 | 3.49 | 14
CN(C)CCNc1c2c(c(NCCN(C)C)c3[nH]ccc13)C(=O)c1ccccc1C2=O | 5.03 | 15.8 | 11.3 | 25.1 | 0.462 | 2.87 | 0.887 | – | 0.587 | 3.1 | 1.57 | 5.14 | 0.654 | – | 0.903 | 2.65 | 0.737 | 3.39 | 0.899 | –
COc1ccc(-c2c3c(N)nc(-c4ccncc4)nc3nc3c2c(C)nn3-c2ccccc2)cc1 | > 100 | > 100 | 12.3 | > 100 | 3.3 | > 100 | 19.7 | > 100 | 7.39 | > 100 | 3.71 | 14.6 | 3.13 | > 100 | – | – | 10.1 | > 100 | 7.12 | > 100
COc1ccc(-c2nc3sc4c(c3c(=O)[nH]2)CCCCCC4)cc1 | 8.17 | > 33.2 | 0.897 | > 33.2 | 2.26 | > 33.2 | 2.16 | > 33.2 | > 33.2 | > 33.2 | > 33.2 | > 33.2 | 0.229 | > 33.2 | – | – | 3.12 | > 33.2 | 8.08 | > 33.2
CCCC(C)c1cc(Cc2cc(Cl)cc(Cl)c2O)c(O)c(Cc2cc(Cl)cc(Cl)c2O)c1 (stereo unspecified) | 1.94 | 6.61 | 0.243 | 2 | 1.02 | 9.34 | 1.66 | 11.2 | 3.89 | 15.5 | 2.3 | 11.8 | 0.34 | 11.7 | 1.96 | 11 | 2.44 | 8.89 | 1.64 | 6.78
COc1ccc(-c2csc(N(C(=O)N3CCN(c4cc5c(cc4F)c(=O)c(C(=O)O)cn5C4CC4)CC3)c3ccccc3)n2)cc1 | 3.18 | 21.7 | 1.34 | 6.42 | 3.12 | > 100 | 3.78 | > 100 | 1.49 | > 100 | 1.7 | 39.9 | 3.1 | > 100 | 3.3 | > 100 | – | – | 1.15 | > 66
CN1CCC(n2cnc(-c3ccc(F)cc3)c2-c2ccnc(NCCO)n2)CC1 | > 25 | > 25 | 14.8 | > 25 | 9.54 | > 25 | > 25 | > 25 | 22.3 | > 25 | > 20.3 | > 25 | 18.3 | > 25 | > 23.2 | > 25 | 13.8 | > 25 | > 23.9 | > 25
COc1cc(/C=C/c2cc(O)c3cc(C(C)=O)c(=O)oc3c2)cc2c1O[C@]1(C)CC[C@@H](O)C(C)(C)[C@H]1C2 | > 23.7 | > 64.9 | – | > 28.2 | – | > 53.2 | > 36.4 | > 88.9 | > 27.8 | > 45.6 | > 42.7 | > 77.7 | – | > 100 | > 32.5 | > 64.1 | – | > 42.2 | – | > 25.3
CCCC(=O)OC1C(C(O)CO)OC2OC(C)(C)OC21 (stereo unspecified) | – | > 100 | – | > 100 | – | > 100 | – | > 100 | – | > 100 | – | > 100 | – | < 3.16 | – | > 100 | – | > 100 | – | > 100
Cc1ccccc1[P+](Cc1ccccc1)(c1ccccc1)c1ccccc1 | 2.35 | > 100 | 1.46 | 7.2 | 2.23 | 10.7 | > 100 | > 100 | 3.69 | > 100 | – | – | 1.08 | > 100 | – | – | 2.27 | 15.3 | 4.81 | > 100
O=C(NCCO)Nc1ccc(-c2nc(N3CCOCC3)c3cccn3n2)cc1 | 0.13 | 6.33 | < 0.0373 | 0.125 | 0.19 | > 100 | 2.25 | > 33.7 | 0.232 | > 58.5 | 0.0935 | 2.64 | 2.8 | > 100 | 0.183 | 8.47 | 0.693 | 35.3 | 0.218 | 6.14
COc1cccc(-n2ncc3c(N/N=C/c4ccc(C(=O)NCCN(C)C)cc4)ncnc32)c1 | 9.36 | > 22.2 | > 13.6 | > 25 | 3.23 | 7.24 | 5.25 | 11.2 | 3.18 | 6.57 | 3.4 | 6.8 | 0.128 | 6.65 | 4.31 | 8.57 | 1.28 | 5.62 | 3.58 | 8.14
OC(c1cc(-c2ccccc2)nc2ccc(Cl)cc12)C1CCCCN1 (stereo unspecified) | 2.19 | 4.64 | 6.22 | 20.3 | 1.89 | 3.61 | 2.25 | 5.35 | 3.07 | 8.74 | 4.06 | 16.2 | 2.54 | 7.01 | 2.36 | 6.27 | 1.55 | 2.91 | 1.96 | 4.57
O=c1cc(-c2ccccc2)[nH]c2ccccc12 | 7.4 | > 100 | 0.428 | 33 | 0.398 | > 50.9 | 0.483 | – | 0.829 | > 71.4 | – | > 100 | – | > 100 | 8.95 | > 100 | 2.72 | > 100 | 2.81 | > 100
O=C(NCCCCCCNC(=O)n1cc(F)c(=O)[nH]c1=O)NCCCOCCOCCOCCOCCOCCOCCOCCOCCOCCOCCOCCOCCOCCOCCOCCOCCOCCOCCOCCOCCOCCCNC(=O)C(O)C(O)C(O)C(O)CO (stereo unspecified) | – | > 100 | – | > 42.1 | – | > 100 | – | > 100 | – | > 100 | – | > 100 | – | > 100 | – | > 100 | – | > 100 | – | > 100
Oc1cccc2ccc(N/N=C/c3cc(CN4CCCCC4)c(O)c4ncccc34)nc12 | 0.41 | 2.9 | 0.433 | 14.1 | 0.0386 | 1.67 | 0.0463 | 1.06 | 0.109 | 3.18 | 0.0527 | 11 | 0.0383 | 11.1 | 0.299 | 14.7 | 0.0553 | 1.61 | 0.0826 | 1.7
CCc1nccc2c1nc(-c1nonc1N)n2CC | > 18 | > 25 | 7.1 | > 25 | > 25 | > 25 | > 25 | > 25 | > 25 | > 25 | 7.83 | > 25 | > 25 | > 25 | > 25 | > 25 | > 25 | > 25 | > 25 | > 25
O=C1CC(c2ccc(O)cc2)C2(O1)C(=O)OC(C(O)CO)C2O (stereo unspecified) | – | > 100 | – | > 100 | – | – | – | > 100 | – | > 100 | – | > 100 | – | > 100 | – | > 100 | – | > 100 | – | > 100
COc1ccc2sc3c(NCCCN(C)C)nc4ccccc4c3c(=O)c2c1 | 1.67 | 3.34 | 1.38 | 2.78 | 1.54 | 3.03 | 1.64 | 3.28 | 1.66 | 3.07 | 1.81 | 3.31 | 1.8 | 4.71 | 1.51 | 2.93 | 1.48 | 2.89 | 1.34 | 2.71
CC[C@@H](C(=O)O)C1CC[C@H](C)C([C@@H](C)[C@H](O)[C@H](C)C(=O)[C@H](CC)C2O[C@]3(C=C[C@@H](O)[C@]4(CC[C@@](C)(C5CC[C@](O)(CC)[C@H](C)O5)O4)O3)[C@H](C)C[C@@H]2C)O1 (stereo partly specified) | 1.19 | 10.8 | 0.0458 | 0.799 | 0.383 | 10.5 | 0.443 | 34.7 | 0.805 | 32.4 | 0.987 | 39.4 | 0.306 | 15.6 | 0.523 | 22.5 | 0.641 | 13.6 | 0.656 | 7.92
COc1ccc(/C(C#N)=C/c2ccccc2OC)cc1 | 17.7 | > 100 | 5.37 | > 100 | 5.89 | > 100 | 3.66 | > 100 | 27.7 | > 100 | 12.4 | > 100 | 4.11 | > 100 | 41.1 | > 100 | 6.6 | > 100 | 15.2 | > 100
COc1ccc2c(c1)/C(=C\c1c(C)nc3sccn13)C(=O)N2 | 6.55 | 74.4 | < 0.01 | 0.0646 | – | > 100 | – | > 42.2 | 0.55 | > 100 | – | > 63.5 | 0.0956 | > 100 | 2.12 | > 100 | < 0.01 | > 100 | – | > 100
COc1ccc(/C=C2\CCCC3=C2N=C2SC(C)=NN2C3c2ccc(OC)c(OC)c2)cc1OC (stereo unspecified) | 13.3 | 79.4 | 2 | 86.3 | 23.8 | > 100 | 4.71 | > 100 | 10.7 | > 100 | 5.99 | 51.2 | 3.98 | > 100 | – | – | 4.52 | 35.2 | 11 | > 100
CC#C[C@]1(O)CC[C@H]2[C@@H]3CCC4=CC(=O)CCC4=C3[C@@H](c3ccc4c(c3)OCO4)C[C@@]21C | 140 | 617 | 88.3 | 268 | 108 | 305 | 92.4 | > 1000 | 138 | 391 | 125 | 461 | – | – | 40.4 | 813 | 113 | 253 | 35.8 | 324
CC(C)c1cc(-c2n[nH]c(=O)n2-c2ccc3c(ccn3C)c2)c(O)cc1O | 0.286 | 60.1 | 0.0534 | 14 | < 0.0157 | 13.9 | 0.0409 | > 100 | < 0.0237 | 23 | < 0.0271 | 37 | < 0.0123 | > 100 | – | – | 0.0238 | 0.0661 | 0.0686 | 45.4
COC(=O)[C@@]1(C)CC[C@]2(C)CC[C@]3(C)C4=CC=C5C(=CC(=O)C(O)=C5C)[C@]4(C)[C@@H](O)C[C@@]3(C)[C@@H]2C1 | 13.9 | 24.9 | – | – | 13.4 | 25.5 | 15.3 | 34.8 | 12.3 | 23.3 | 4.77 | 15.7 | 4.25 | 20.9 | 12.9 | 25.2 | 10.4 | 21.3 | 1.79 | 5.23
